Where “and” joins values, the source holds several entries; their conditions need not be identical. Equal entries are not always repeated. A value given as a limit tells only on which side of the number the result lay.

As usually defined, the IC50 is the point on the concentration scale where inhibition reaches its midpoint.

Data set [1] has as its system Trypanosoma brucei brucei. Briefly: microbe, parasite or virus in culture. It is filed as functional, organism-based, STIB 795.
Description: DNDI: Inhibition of Human African Trypanosomiasis (HAT), STIB 795, in vitro
The nature of data set [2]: DNDI: Cytotoxicity against human MRC-5 lung fibroblast cells. The settings on record: IC50.

As to `O=C(O/N=C(/NCc1ccccc1)c1ccc(Cl)cc1)c1cccs1`, the half-maximal inhibitory concentration (IC50) in data set [1] (Trypanosoma brucei, STIB 795) is 0.47 µM; in data set [2], more than 41.7 µM.

On to `CCOC(=O)N1CCN(C2=C(NC(C)=O)C(=O)c3ccccc3C2=O)CC1`, for which the IC50 in data set [1] (Trypanosoma brucei, STIB 795) was 5.36 µM; in data set [2], more than 41.7 µM.

For `COc1cc(C(=O)Nc2nc(-c3ccccn3)cs2)cc(OC)c1OC`, the IC50 in data set [1] (Trypanosoma brucei, STIB 795) was 4.6 µM; in data set [2], more than 41.7 µM.

On to `CCc1c(C)nc(-n2nc(C)cc2NC(=O)c2ccccc2Cl)[nH]c1=O`, for which the IC50 in data set [1] (Trypanosoma brucei, STIB 795) was 2.88 µM; in data set [2], more than 20.8 µM.

For the compound `O=C1CC(Sc2nc(-c3ccco3)cc(C(F)(F)F)n2)C2COC1O2` (centres undefined), the IC50 was 12 µM and 5.11 µM in data set [1]; more than 20.8 µM in data set [2].

For the compound `CC(Cc1ccco1)NC(=O)c1cccc(NC(=O)C2=CSCCO2)c1` (centres undefined), the IC50 is 5.79 µM in data set [1] (Trypanosoma brucei, STIB 795) and more than 41.7 µM in data set [2].

For `Cc1cc(C2=CC(C)(C)NC(C)(C)C2)sc1C1=CC(C)(C)NC(C)(C)C1`, the IC50 in data set [1] (Trypanosoma brucei, STIB 795) was 4.82 µM; in data set [2] it was more than 41.7 µM.

For `CC(C)C1N=C(c2ccc3c(c2)OCO3)CC(c2cc(Cl)ccc2O)N1` (centres undefined), the IC50 is 5.58 µM in data set [1] (Trypanosoma brucei, STIB 795) and more than 41.7 µM in data set [2].

As for `CCOc1ccc2nc3cc(NCc4ccccc4OC)ccc3c(N)c2c1`, the IC50 in data set [1] (Trypanosoma brucei, STIB 795) was 4.58 µM; in data set [2], more than 20.8 µM.

For `COC(=O)c1ccc2c(c1)C(C)(C)C(/C=C/c1c(C)[nH]c3ccccc13)=[N+]2C`, the IC50 in data set [1] (Trypanosoma brucei, STIB 795) is 2.97 µM; in data set [2], more than 4.17 µM.

Take `CC(C)n1c(=N)n(CCOc2ccc(Br)cc2)c2ccccc21`: the IC50 was 2.02 µM in data set [1] (Trypanosoma brucei, STIB 795) and more than 4.17 µM in data set [2].

Take `CCC1=C(C)c2cc3nc(C(=O)OCc4ccccc4)c(C)c-3c(C)n2C1C` (centres undefined): the IC50 in data set [1] (Trypanosoma brucei, STIB 795) is 5.66 µM; in data set [2], more than 41.7 µM.

In the case of `CC1(C)CC2CC(C)(CN2C(=O)COCc2cc(-c3cccs3)on2)C1` (centres undefined), the IC50 in data set [1] (Trypanosoma brucei, STIB 795) is 5.44 µM; in data set [2], more than 41.7 µM.

As to `Cc1ccccc1OCCn1c(=N)n(Cc2ccccc2F)c2ccccc21`, the IC50 is 4.95 µM in data set [1] (Trypanosoma brucei, STIB 795) and more than 20.8 µM in data set [2].

As to `CCOC(=O)c1ccc(CCCCCON2C(N)=NC(N)=NC2(C)C)cc1`, the IC50 in data set [1] (Trypanosoma brucei, STIB 795) was 1.05 µM; in data set [2], more than 1.04 µM.

As to `CCOc1cc2c(cc1OCC)C(c1ccc(Br)cc1)NCC2` (centres undefined), the IC50 was 5.55 µM in data set [1] (Trypanosoma brucei, STIB 795) and more than 41.7 µM in data set [2].

For `O=C(CS(=O)(=O)c1ccc(F)cc1)Nc1nc(-c2ccccn2)cs1`, the IC50 is 0.791 µM in data set [1] (Trypanosoma brucei, STIB 795) and more than 10.4 µM in data set [2].

With `N=c1n(CCOc2ccccc2)c2ccccc2n1Cc1ccc(Cl)cc1`, the IC50 in data set [1] (Trypanosoma brucei, STIB 795) is 6.63 µM; in data set [2] it was more than 41.7 µM.

On to `Cc1ccc(-c2cc(C(F)F)nc(SC3CC(=O)C4OCC3O4)n2)cc1` (centres undefined), for which the IC50 in data set [1] is > 10.4 µM and 5.2 µM; in data set [2] it was more than 41.7 µM.

For `CC(C)Cc1nc(NCCC2CCCN2C)c2cnn(-c3ccccc3)c2n1` (centres undefined), the IC50 in data set [1] (Trypanosoma brucei, STIB 795) is 2.66 µM; in data set [2], more than 20.8 µM.

With `COc1ccc(-c2cs/c(=N\CC3CCNCC3)n2-c2ccccc2)cc1`, the IC50 in data set [1] (Trypanosoma brucei, STIB 795) is 5.74 µM; in data set [2], more than 20.8 µM.

On to `CN(C)c1ccc(/C=C/c2cc(-c3ccccc3)n(-c3ccccc3)[n+]2C)cc1`, for which the IC50 was 0.68 µM in data set [1] (Trypanosoma brucei, STIB 795) and more than 20.8 µM in data set [2].

On to `COc1ccccc1C(CCNC(C)c1ccccc1)C1CCOC(C)(C)C1` (centres undefined), for which the IC50 in data set [1] (Trypanosoma brucei, STIB 795) is 4.74 µM; in data set [2], more than 41.7 µM.

For the compound `C=CCN(CC=C)Cc1c(O)ccc2c(=O)c(-c3ccccc3Cl)coc12`, the IC50 in data set [1] was 5.3 µM; in data set [1] (Trypanosoma brucei, STIB 795), 5.19 µM; in data set [2], more than 41.7 µM.

In the case of `O=C(N/N=C/c1cc(I)ccc1O)c1ccccc1O`, the IC50 is 44.4 µM in data set [1] (Trypanosoma brucei, STIB 795) and more than 4.17 µM in data set [2].

Take `O=C(NC(c1ccco1)c1cc(Cl)c2cccnc2c1O)c1cccnc1` (centres undefined): the IC50 was 0.053 µM in data set [1] (Trypanosoma brucei, STIB 795) and more than 20.8 µM in data set [2].

In the case of `CCN(CC)CCn1c(=N)n(CC(=O)c2ccc(C)cc2)c2ccccc21`, the IC50 in data set [1] is 4.97 µM; in data set [1] (Trypanosoma brucei, STIB 795), 4.72 µM; in data set [2], more than 41.7 µM.

Take `CCC(/C=C1\Sc2ccccc2N1C)=C\c1sc2ccccc2[n+]1C`: the IC50 in data set [1] (Trypanosoma brucei, STIB 795) stood at 0.403 µM; in data set [2], 2.28 µM.

As to `CC[n+]1c(/C=C/c2ccc(N(C)C)cc2)sc2ccc(C(=O)OC)cc21`, the concentration for half-maximal inhibition (IC50) in data set [1] (Trypanosoma brucei, STIB 795) was 0.131 µM; in data set [2], more than 20.8 µM.

In the case of `CCC1(C)CC(CCNCc2ccccc2O)(c2ccc(F)cc2)CCO1` (centres undefined), the IC50 in data set [1] (Trypanosoma brucei, STIB 795) was 4.73 µM; in data set [2], more than 41.7 µM.

Take `Oc1c(CN2CCC(Cc3ccccc3)CC2)cc(Cl)c2cccnc12`: the IC50 in data set [1] (Trypanosoma brucei, STIB 795) is 4.68 µM; in data set [2] it was more than 20.8 µM.

In the case of `CCCCC(=O)NC(c1cccs1)c1cc(Cl)c2cccnc2c1O` (centres undefined), the IC50 is 0.666 µM in data set [1] (Trypanosoma brucei, STIB 795) and more than 41.7 µM in data set [2].

With `O=C(NC(c1ccccc1F)c1ccc2cccnc2c1O)c1ccccc1` (centres undefined), the IC50 is 6.12 µM in data set [1] (Trypanosoma brucei, STIB 795) and more than 4.17 µM in data set [2].

For the compound `CCOc1ccc(N(C(C)=O)C2=C(N(C)C)C(=O)c3ccccc3C2=O)cc1`, the IC50 is 5.11 µM in data set [1] (Trypanosoma brucei, STIB 795) and more than 4.17 µM in data set [2].

With `Oc1cccnc1NC(c1ccc(Cl)cc1)c1ccc2cccnc2c1O` (centres undefined), the IC50 in data set [1] (Trypanosoma brucei, STIB 795) is 4.02 µM; in data set [2] it was more than 41.7 µM.

For `CCN1/C(=C/C=C/C2=[N+](C)c3ccc(C)cc3C2(C)C)C=Cc2ccccc21`, the IC50 in data set [1] (Trypanosoma brucei, STIB 795) was 0.239 µM; in data set [2] it was more than 4.17 µM.

(Values after ChEMBL document CHEMBL2094269, “WEHI/Eskitis Trypanosoma b. brucei screening data”.)
